Reference: the supplement of paper PMC4932681
Counter-ions that a name gives are not always drawn.

Key:
Test in all cases: viability inhibition at highest dose (% inhibition); higher = more growth inhibition
BT-474 Tam2 = settings: 4-OH-tamoxifen in medium 1 µM; 72 h
Method: (§1)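 Percent inhibition of viability (CellTiter-Glo, 72 h) at the highest tested concentration (D5), normalised to DMSO (0%) and 100 µM benzethonium chloride (100%). Resistant lines and the 'in 1µM tamoxifen' arms were tested in 1 µM 4-OH-tamoxifen.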

BT-474 Tam1 = settings: 4-OH-tamoxifen in medium 1 µM; 72 h
Method: as §1

MCF-7 = settings: 72 h
Method: as §1

T-47D = settings: 72 h
Method: as §1

MCF-7 Tam1 = settings: 4-OH-tamoxifen in medium 1 µM; 72 h
Method: as §1

ZR-75-1 = settings: 72 h
Method: as §1

T-47D Tam1 = settings: 4-OH-tamoxifen in medium 1 µM; 72 h
Method: as §1

T-47D Tam2 = settings: 4-OH-tamoxifen in medium 1 µM; 72 h
Method: as §1

ZR-75-1 Tam1 = settings: 4-OH-tamoxifen in medium 1 µM; 72 h
Method: as §1

ZR-75-1 Tam2 = settings: 4-OH-tamoxifen in medium 1 µM; 72 h
Method: as §1

BT-474 = settings: 72 h
Method: as §1

Row | Structure (SMILES) | viability inhibition at highest dose (BT-474 Tam2) | viability inhibition at highest dose (BT-474 Tam1) | viability inhibition at highest dose (MCF-7; 4-OH-tamoxifen in medium 0 µM) | viability inhibition at highest dose (MCF-7; 4-OH-tamoxifen in medium 1 µM) | viability inhibition at highest dose (T-47D; 4-OH-tamoxifen in medium 0 µM) | viability inhibition at highest dose (T-47D; 4-OH-tamoxifen in medium 1 µM) | viability inhibition at highest dose (MCF-7 Tam1) | viability inhibition at highest dose (ZR-75-1; 4-OH-tamoxifen in medium 0 µM) | viability inhibition at highest dose (ZR-75-1; 4-OH-tamoxifen in medium 1 µM) | viability inhibition at highest dose (T-47D Tam1) | viability inhibition at highest dose (T-47D Tam2) | viability inhibition at highest dose (ZR-75-1 Tam1) | viability inhibition at highest dose (ZR-75-1 Tam2) | viability inhibition at highest dose (BT-474; 4-OH-tamoxifen in medium 0 µM) | viability inhibition at highest dose (BT-474; 4-OH-tamoxifen in medium 1 µM)
1 | Cc1c(CN2CCN(C(=O)[C@H](C)O)CC2)sc2c(N3CCOCC3)nc(-c3cnc(N)nc3)nc12 [GDC-0980] (drug 10000 nM) | 84.3 | 87.4 | 74 | 73.4 | 73.8 | 72.1 | 52.1 | 64.4 | 56.3 | 67.1 | 64 | 66.6 | 72.1 | 60.1 | 86.3
2 | C[C@@H]1C=C2C(=O)O[C@@H]3CC[C@H](C1)[C@]23O [Galiellalactone] (drug 50000 nM) | 3.76 | 50.9 | 72.3 | 14.4 | 59.8 | 54.7 | -3.64 | -10.5 | -3.25 | 41.4 | 40.6 | 4.34 | 1.46 | -0.142 | 54.5
3 | COc1cc2ncnc(Nc3ccc(F)c(Cl)c3)c2cc1OCCCN1CCOCC1 [Gefitinib] (drug 10000 nM) | 96.8 | 97.7 | 28 | 35.6 | 12.1 | 8.3 | 14.2 | 13.1 | 27.5 | 34.2 | 47.3 | 22.2 | 18.6 | 86.4 | 96.6
4 | COC1=C2C[C@@H](C)C[C@H](OC)[C@H](O)[C@@H](C)/C=C(\C)[C@H](OC(N)=O)[C@@H](OC)/C=C\C=C(/C)C(=O)NC(=CC1=O)C2=O [Geldanamycin] (drug 10000 nM) | 82.1 | 83.6 | 85.8 | 78.5 | 73.3 | 74.9 | 58.9 | 62 | 80.5 | 82.4 | 67.1 | 69 | 66.7 | 67.6 | 69.7
5 | Nc1ccn([C@@H]2O[C@H](CO)[C@@H](O)C2(F)F)c(=O)n1 [Gemcitabine] (drug 1000 nM) | -10.3 | 1.24 | 25.8 | 4.61 | 32.3 | 7.44 | -2.89 | 16.9 | 19.4 | 25.9 | 21.5 | 9.23 | 11.2 | -11.7 | -4.83
6 | CC(C)C[C@H](NC(=O)[C@@H](COC(C)(C)C)NC(=O)[C@H](Cc1ccc(O)cc1)NC(=O)[C@H](CO)NC(=O)[C@H](Cc1c[nH]c2ccccc12)NC(=O)[C@H](Cc1cnc[nH]1)NC(=O)[C@@H]1CCC(=O)N1)C(=O)N[C@@H](CCCNC(=N)N)C(=O)N1CCC[C@H]1C(=O)NNC(N)=O [Goserelin acetate] (drug 10000 nM) | 3.49 | 4.09 | -35 | 2.51 | -9.98 | -8.33 | -8.86 | -9.52 | -3.92 | 3.41 | 13 | 3.63 | -3.44 | -9.97 | -17.3
7 | NC(=O)NO [Hydroxyurea] (drug 100000 nM) | 5.16 | 6.52 | -13.2 | 12.6 | -10.4 | 7.44 | 1.25 | -5.61 | 3.11 | -2.99 | 1.81 | 2.07 | -8.32 | -6.12 | 14.5
8 | CC(C)n1nc(-c2ccc3oc(N)nc3c2)c2c(N)ncnc21 [INK128] (drug 1000 nM) | 44.1 | 72.6 | 70.3 | 52.4 | 66.7 | 46.4 | 35.9 | 61.2 | 51.9 | 58.8 | 36.7 | 52.7 | 66 | 36.7 | 62.9
9 | CC(=O)[C@]1(O)Cc2c(O)c3c(c(O)c2[C@@H](O[C@H]2C[C@H](N)[C@H](O)[C@H](C)O2)C1)C(=O)c1ccccc1C3=O [Idarubicin] (drug 1000 nM) | 65 | 87.9 | 80.6 | 66.6 | 68.9 | 59.5 | 39.5 | 61.7 | 52.2 | 83.7 | 45.9 | 55.2 | 62.4 | 77.2 | 96.2
10 | O=P(O)(NCCCl)NCCCl [Ifosfamide mustard] (drug 10000 nM) | -5.04 | -11.5 | -19.2 | -14.2 | -13.8 | -10.1 | -11 | -10.9 | -4.6 | -3.5 | -1.32 | 1.78 | 0.309 | -4.47 | -15.1
11 | O=P1(NCCCl)OCCCN1CCCl (stereo not given) [Ifosfamide] (drug 10000 nM) | -0.857 | 2.59 | -17.9 | 17.3 | -16.4 | -8.32 | -4.9 | -8.49 | -7.06 | -0.131 | 1.35 | 2.45 | -4.83 | -8.04 | 1.1
12 | Cc1ccc(NC(=O)c2ccc(CN3CCN(C)CC3)cc2)cc1Nc1nccc(-c2cccnc2)n1 [Imatinib] (drug 10000 nM) | 27.2 | 49.1 | -13.1 | 11.1 | 10.4 | 5.9 | 4.63 | 0.33 | 17.8 | 3.96 | 20.5 | 7.91 | 8.38 | -0.39 | 23.3
13 | CC(C)Cn1cnc2c(N)nc3ccccc3c21 [Imiquimod] (drug 10000 nM) | 11.8 | 8.22 | -14.1 | 15.9 | 16.1 | 10.4 | 5.29 | 0.432 | 2.78 | 8.8 | 15.3 | -4.93 | -8.03 | 9.75 | 18.4
14 | O=C(Nc1ccncc1)C(=O)c1cn(Cc2ccc(Cl)cc2)c2ccccc12 [Indibulin] (drug 10000 nM) | 8.07 | 7.16 | 36.4 | 33.7 | 2.62 | 12 | -9.03 | 9.44 | -3.66 | 13 | 4.46 | 10.6 | 11.1 | 7.67 | 28.2
15 | CCc1c2c(nc3ccc(OC(=O)N4CCC(N5CCCCC5)CC4)cc13)-c1cc3c(c(=O)n1C2)COC(=O)[C@]3(O)CC [Irinotecan] (drug 10000 nM) | -11 | -9.22 | 23.7 | 23.7 | 42.8 | -0.292 | -8.36 | 41.6 | 30 | 34.4 | 23.3 | 35 | 44.3 | -20.2 | -25.4
16 | C/C(=C\c1csc(C)n1)[C@@H]1C[C@@H]2O[C@]2(C)CCC[C@H](C)[C@H](O)[C@@H](C)C(=O)C(C)(C)[C@@H](O)CC(=O)N1 [Ixabepilone] (drug 1000 nM) | -14.8 | 4.12 | 33.8 | 26.2 | 45.1 | 23 | -16.3 | -11.9 | -5.49 | 30 | 33.3 | -3.74 | -5.09 | -8.54 | 41
17 | O=C(Cc1ccc(-c2ccc(OCCN3CCOCC3)cc2)cn1)NCc1ccccc1 [KX2-391] (drug 10000 nM) | 92.2 | 92.7 | 44.4 | 55.3 | 24.2 | 25.3 | 16.8 | 41.1 | 38.6 | 74.1 | 47.3 | 43.1 | 47.8 | 41 | 82.9
18 | CS(=O)(=O)CCNCc1ccc(-c2ccc3ncnc(Nc4ccc(OCc5cccc(F)c5)c(Cl)c4)c3c2)o1 [Lapatinib] (drug 1000 nM) | 96.2 | 96.8 | 6.77 | 17.5 | 5.41 | -0.526 | 0.111 | 0.392 | -2.73 | 14.6 | 16.8 | 5.35 | -5.73 | 76.6 | 95.8
19 | Oc1ccc2c(c1)CC[C@H](c1ccccc1)[C@@H]2c1ccc(OCCN2CCCC2)cc1 [Lasofoxifene] (drug 1000 nM) | 12.4 | 34.3 | 3.8 | 25 | -21.7 | -10.6 | -2.47 | -9.97 | -2.22 | 2.67 | 5.06 | 3.54 | 2.17 | -9.14 | 24.2
20 | Nc1cccc2c1CN(C1CCC(=O)NC1=O)C2=O (stereo not given) [Lenalidomide] (drug 10000 nM) | 2.75 | 5.58 | -4.99 | 29.1 | -20.4 | -6.19 | -1.73 | -8.43 | -6.55 | -2.5 | -4.53 | 2.97 | -0.811 | -5.28 | -16.5
21 | C[C@]12O[C@H](C[C@]1(O)CO)n1c3ccccc3c3c4c(c5c6ccccc6n2c5c31)CNC4=O [Lestaurtinib] (drug 1000 nM) | 24.5 | 46.3 | 21.4 | 9.26 | -13.3 | 19.6 | 21.2 | 8.87 | 8.3 | -16.2 | -5.08 | 1.32 | 12.4 | 10.1 | 42.1
22 | N#Cc1ccc(C(c2ccc(C#N)cc2)n2cncn2)cc1 [Letrozole] (drug 10000 nM) | -3.68 | -6.74 | -10.7 | -14.2 | -9.48 | 0.428 | -6.5 | -2.82 | -9.49 | -0.0184 | 6.57 | -0.517 | -2.74 | -5.7 | -8.86
23 | c1ccc([C@H]2CN3CCSC3=N2)cc1 [Levamisole, (Tetramisole hydrochloride)] (drug 10000 nM) | 4.72 | -1.57 | -9.38 | 1.67 | 1.99 | -2.51 | -9.5 | 1.62 | 3.25 | -4.38 | 3.27 | -0.419 | 4.7 | -0.587 | -3.62
24 | Cc1ccc(F)c(NC(=O)Nc2ccc(-c3cccc4[nH]nc(N)c34)cc2)c1 [Linifanib (ABT-869)] (drug 1000 nM) | -11.2 | -15 | -7.63 | 4.89 | -7.82 | -2.26 | -5.44 | -3.03 | -10.3 | 5.32 | -13.7 | -5.49 | -0.131 | -5.83 | -19
25 | C[C@]1(O)C[C@@H](c2nc(-c3ccc4ccc(-c5ccccc5)nc4c3)c3c(N)nccn32)C1 [Linsitinib (OSI-906)] (drug 10000 nM) | 7.88 | 3.26 | 52.5 | 62.4 | 28.3 | 33.2 | 38.1 | 14.6 | 20.1 | 84.2 | 29 | 12.2 | 16.3 | -2.14 | 21.6
26 | O=NN(CCCl)C(=O)NC1CCCCC1 [Lomustine] (drug 10000 nM) | -2.72 | 0.268 | 12.6 | 13.1 | -10.8 | -1.44 | -10.9 | -11.7 | -5.51 | -5.12 | 7.26 | -0.686 | -14.9 | -2.85 | 4.76
27 | Cn1cnc2c(F)c(Nc3ccc(Br)cc3F)c(C(=O)NOCCO)cc21 [MEK-162 (ARRY-162)] (drug 1000 nM) | -1.22 | 2.68 | 12.2 | 20.8 | -6.66 | -10.7 | 10.4 | -6.09 | -7.06 | 17.2 | 14.1 | -1.39 | 7.88 | -13.3 | 6.81
